The text below walks through data of patent US9416141B2 (University of Washington through its Center for …, priority 2012, dated 2016).

SMILES strings stand for the structures. Where a name gives a salt, the structure may show the parent alone.

The assay deals with hair cells. Description: Hair cell toxicity assay in zebrafish (neomycin-induced hair cell death, DASPEI staining of neuromasts). It counts as in vivo. The settings on record: Danio rerio; for Emax at 25 µM: maximum observed @ 25 μM test compound; for EC50: zebrafish larvae 5-7 dpf, 1 h pre-treatment, then 200 micromolar neomycin + test compound 30 min, read-out: HC50 (concentration that would produce 50% hair cell survival); for Emax at 2.8 µM: maximum observed @ 2.8 μM test compound; for Emax at 8.3 µM: maximum observed @ 8.3 μM test compound. A digest of the protocol:
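Zebrafish larvae 5-7 dpf pre-treated 1 h with compound (0.010-25 μM), then 30 min with 200 μM neomycin plus compound. DASPEI stained 10 neuromasts per fish, scored 0-2 (total 0-20), normalised to vehicle controls as % hair cell survival. HC50 linearly interpolated if survival reached ≥50%; HCmax is maximum survival.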

[1] abbreviates: 200 micromolar neomycin, read-out: Max HC Protection (HCmax, % hair cell survival).

On to `NC(=O)c1c(NC(=O)Nc2ccc(Cl)cc2)sc2c1CCN(CCCNC(=O)C1CC1)C2` [Example 215, 2-{[(4-chlorophenyl)carbamoyl]amino}-6-[3-(cyclopropylformamido)propyl]-4H,5H,6H,7H-thieno[2,3-c]pyridine-3-carboxamide], for which the EC50 lay in the range of 1 to 10 µM. Moreover, the Emax at 25 µM under setting [1] was 95%.

As for `CCN1CCc2c(sc(NC(=O)Nc3ccc(Cl)cc3)c2C(=O)NCCN(C)C)C1` [Example 99, 2-[3-(4-Chlorophenyl)ureido]-N-[2-(dimethylamino)ethyl]-6-ethyl-4,5,6,7-tetrahydrothieno[2,3-c]pyridine-3-carboxamide dihydrochloride], under setting [1], the Emax at 2.8 µM is 18%.

For the compound `CC(C)C[N+]1(C)CCc2c(sc(NC(=O)Nc3ccc(Cl)c4ccccc34)c2C(N)=O)C1` (centres unmarked) [Example 181, 3-Carbamoyl-2-[3-(4-chloronaphthalen-1-yl)ureido]-6-isobutyl-6-methyl-4,5,6,7-tetrahydrothieno[2,3-c]pyridin-6-ium iodide], the EC50 was in the range of 1 to 10 µM. Under setting [1], the Emax at 25 µM came to 93%.

`CCOC(=O)CC[N+]1(C)CCc2c(sc(NC(=O)Nc3ccc(Cl)cc3)c2C(N)=O)C1` (centres unmarked) [Example 160, 3-Carbamoyl-2-[3-(4-chlorophenyl)ureido]-6-(3-ethoxy-3-oxopropyl)-6-methyl-4,5,6,7-tetrahydrothieno[2,3-c]pyridin-6-ium chloride iodide]: the EC50 lay in the range of 1 to 10 µM. Also, under setting [1], the Emax at 2.8 µM turned out to be 70%.

For the compound `CC1(CN2CCc3c(sc(NC(=O)Nc4ccc(Cl)cc4)c3C(N)=O)C2)CC1` [Example 63, 2-[3-(4-Chlorophenyl)ureido]-6-[(1-methylcyclopropyl)methyl]-4,5,6,7-tetrahydrothieno[2,3-c]pyridine-3-carboxamide hydrochloride], the EC50 was in the range of 1 to 10 µM. The Emax at 2.8 µM under setting [1] was 54%.

With `CC[N+]1(CCCC(=O)OC(C)(C)C)CCc2c(sc(NC(=O)Nc3ccc(Cl)cc3)c2C(N)=O)C1` (centres unmarked) [Example 198, 6-[4-(tert-Butoxy)-4-oxobutyl]-3-carbamoyl-2-[3-(4-chlorophenyl)ureido]-6-ethyl-4,5,6,7-tetrahydrothieno[2,3-c]pyridin-6-ium trifluoroacetate], the EC50 is below 1 µM. Besides, the Emax at 2.8 µM under setting [1] was 89%.

`C[N+]1(C2CCOCC2)CCc2c(sc(NC(=O)Nc3ccc(Cl)cc3)c2C(N)=O)C1` (centres unmarked) [Example 143, 3-Carbamoyl-2-[3-(4-chlorophenyl)ureido]-6-methyl-6-(tetrahydro-2H-pyran-4-yl)-4,5,6,7-tetrahydrothieno[2,3-c]pyridin-6-ium iodide]: the EC50 is 1 to 10 µM. In addition, the Emax at 25 µM under setting [1] was determined as 96%.

In the case of `CC(C)(C)OC(=O)CCCN1CCc2c(sc(NC(=O)Nc3ccc(Cl)cc3)c2C(N)=O)C1` [Example 14, tert-Butyl 4-{3-carbamoyl-2-[3-(4-chlorophenyl)ureido]-4,5-dihydrothieno[2,3-c]pyridin-6(7H)-yl}butanoate], the EC50 was below 1 µM. The Emax at 8.3 µM under setting [1] was found to be 83%.

In the case of `CCN1CCc2c(sc(NC(=O)Nc3cccc4nsnc34)c2C(N)=O)C1` [Example 80, 2-[3-(Benzo[c][1,2,5]thiadiazol-4-yl)ureido]-6-ethyl-4,5,6,7-tetrahydrothieno[2,3-c]pyridine-3-carboxamide hydrochloride], the Emax at 8.3 µM under setting [1] was determined as 36%.

With `CC(C)NC(=O)CCCN1CCc2c(sc(NC(=O)Nc3ccc(Cl)cc3)c2C(N)=O)C1` [Example 25, 2-[3-(4-Chlorophenyl)ureido]-6-[4-(isopropylamino)-4-oxobutyl]-4,5,6,7-tetrahydrothieno[2,3-c]pyridine-3-carboxamide hydrochloride], the EC50 lay within 1 to 10 µM. Also, under setting [1], the Emax at 2.8 µM was found to be 57%.

On to `C[N+]1(CC2CCC2)C2CCC1c1sc(NC(=O)Nc3ccc(Cl)cc3)c(C(N)=O)c1C2` (racemic) [Example 189, (+/−)-3-Carbamoyl-2-[3-(4-chlorophenyl)ureido]-9-(cyclobutylmethyl)-9-methyl-5,6,7,8-tetrahydro-4H-thienocyclohepten-5,8-iminium trifluoroacetate], for which the EC50 is 1 to 10 µM. Besides, the Emax at 25 µM under setting [1] was determined as 96%.

Consider `C#CCCC(=O)NCCCN1CCc2c(sc(NC(=O)Nc3ccc(Cl)cc3)c2C(N)=O)C1` [Example 216, 2-{[(4-chlorophenyl)carbamoyl]amino}-6-[3-(pent-4-ynamido)propyl]-4H,5H,6H,7H-thieno[2,3-c]pyridine-3-carboxamide], for which the EC50 lay in the range of 1 to 10 µM. The Emax at 25 µM under setting [1] worked out at 97%.

Regarding `CCN1CCc2c(sc(NC(=O)Nc3ccc(Cl)cc3)c2C(=O)NCc2cccnc2)C1` [Example 98, 2-[3-(4-Chlorophenyl)ureido]-6-ethyl-N-(pyridin-3-ylmethyl)-4,5,6,7-tetrahydrothieno[2,3-c]pyridine-3-carboxamide dihydrochloride], the EC50 is above 10 µM. Moreover, the Emax at 25 µM under setting [1] stood at 52%.

`CC(C)NC(=O)CCN1CCc2c(sc(NC(=O)Nc3ccc(Cl)cc3)c2C(N)=O)C1` [Example 57, 2-[3-(4-Chlorophenyl)ureido]-6-[3-(isopropylamino)-3-oxopropyl]-4,5,6,7-tetrahydrothieno[2,3-c]pyridine-3-carboxamide hydrochloride]: the EC50 fell in the range of 1 to 10 µM. The Emax at 2.8 µM under setting [1] is 50%.

Take `C[N+]1(CC2CCC2)CCc2c(sc(NC(=O)Nc3ccc(Cl)c4ccccc34)c2C(N)=O)C1` (centres unmarked) [Example 182, 3-Carbamoyl-2-[3-(4-chloronaphthalen-1-yl)ureido]-6-(cyclobutylmethyl)-6-methyl-4,5,6,7-tetrahydrothieno[2,3-c]pyridin-6-ium chloride]: the EC50 lay in the range of 1 to 10 µM. The Emax at 83 µM (maximum observed @ 83 μM test compound, 200 micromolar neomycin, read-out: Max HC Protection (HCmax, % hair cell survival)) is 76%.

With `COC(=O)C(C)(C)CN1C2CCC1c1sc(NC(=O)Nc3ccc(Cl)cc3)c(C(N)=O)c1C2` (racemic) [Example 134, (+/−)-Methyl 3-{3-carbamoyl-2-[3-(4-chlorophenyl)ureido]-5,6,7,8-tetrahydro-4H-5,8-epiminocyclohepta[b]thiophen-9-yl}-2,2-dimethylpropanoate hydrochloride], the Emax at 0.9 µM (maximum observed @ 0.9 μM test compound, 200 micromolar neomycin, read-out: Max HC Protection (HCmax, % hair cell survival)) turned out to be 11%.

As to `CC(C)C(C)[N+]1(C)CCc2c(sc(NC(=O)Nc3ccc(Cl)cc3)c2C(N)=O)C1` (racemic) [Example 204, (+/−)-3-Carbamoyl-2-[3-(4-chlorophenyl)ureido]-6-methyl-6-(3-methylbutan-2-yl)-4,5,6,7-tetrahydrothieno[2,3-c]pyridin-6-ium chloride], the Emax at 8.3 µM under setting [1] was found to be 77%.

For the compound `CC[N+]1(C)CCc2c(sc(NC(=O)Nc3ccc(C#N)cc3)c2C(N)=O)C1` (centres unmarked) [Example 150, 3-Carbamoyl-2-[3-(4-cyanophenyl)ureido]-6-ethyl-6-methyl-4,5,6,7-tetrahydrothieno[2,3-c]pyridin-6-ium iodide], under setting [1], the Emax at 25 µM worked out at 43%.

`CC(C)(C)OC(=O)CCN1CCc2c(sc(NC(=O)Nc3ccc(Cl)cc3)c2C(N)=O)C1` [Example 51, tert-Butyl 3-{3-Carbamoyl-2-[3-(4-chlorophenyl)ureido]-4,5-dihydrothieno[2,3-c]pyridin-6(7H)-yl}propanoate]: the EC50 lay within 1 to 10 µM. For the same compound, the Emax at 8.3 µM under setting [1] was found to be 55%.

Consider `CC[N+]1(C)CCc2c(sc(NC(N)=O)c2C(N)=O)C1` (centres unmarked) [Example 184, 3-Carbamoyl-6-ethyl-6-methyl-2-ureido-4,5,6,7-tetrahydrothieno[2,3-c]pyridin-6-ium iodide], for which the Emax at 25 µM under setting [1] was 30%.

As to `COC(=O)C(C)(C)CN1CCc2c(sc(NC(=O)Nc3ccc(Cl)cc3)c2C(N)=O)C1` [Example 38, Methyl 3-{3-carbamoyl-2-[3-(4-chlorophenyl)ureido]-4,5-dihydrothieno[2,3-c]pyridin-6(7H)-yl}-2,2-dimethylpropanoate hydrochloride], the Emax at 2.8 µM under setting [1] was found to be 14%.

For the compound `CC[N+]1(C)CCc2c(sc(NC(=O)Nc3ccc4cc(F)ccc4c3)c2C(N)=O)C1` (centres unmarked) [Example 180, 3-Carbamoyl-6-ethyl-2-[3-(6-fluoronaphthalen-2-yl)ureido]-6-methyl-4,5,6,7-tetrahydrothieno[2,3-c]pyridin-6-ium iodide], the EC50 lay within 1 to 10 µM. The Emax at 25 µM under setting [1] was found to be 102%.

In the case of `CCN1CCc2c(sc(NC(=O)NCc3ccc(Cl)cc3)c2C(N)=O)C1` [Example 76, 2-[3-(4-Chlorobenzyl)ureido]-6-ethyl-4,5,6,7-tetrahydrothieno[2,3-c]pyridine-3-carboxamide hydrochloride], the Emax at 25 µM under setting [1] is 40%.

With `CC[N+]1(C)CCc2c(sc(NC(=O)NCc3ccc(Cl)cc3)c2C(N)=O)C1` (centres unmarked) [Example 148, 3-Carbamoyl-2-[3-(4-chlorobenzyl)ureido]-6-ethyl-6-methyl-4,5,6,7-tetrahydrothieno[2,3-c]pyridin-6-ium iodide], the EC50 was above 10 µM. Besides, the Emax at 25 µM under setting [1] was 51%.

On to `NC(=O)c1c(NC(=O)Nc2ccc(Cl)cc2)sc2c1CCN(CC1CC1)C2` [Example 1, 2-[3-(4-chlorophenyl)ureido]-6-(cyclopropylmethyl)-4,5,6,7-tetrahydrothieno[2,3-c]pyridine-3-carboxamide hydrochloride], for which the EC50 was in the range of 1 to 10 µM. Moreover, the Emax at 25 µM under setting [1] came to 92%.

As to `CN1CCC(N2CCc3c(sc(NC(=O)Nc4ccc(Cl)cc4)c3C(N)=O)C2)CC1` [Example 8, 2-[3-(4-Chlorophenyl)ureido]-6-(1-methylpiperidin-4-yl)-4,5,6,7-tetrahydrothieno[2,3-c]pyridine-3-carboxamide dihydrochloride], the EC50 is above 10 µM. Further, under setting [1], the Emax at 25 µM came out at 84%.
